Results from PubChem BioAssay (NCI).
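Cells were grown in 96-well plates and exposed to each compound for 48 hours at five concentrations; endpoints were interpolated linearly between bracketing concentrations, or set to the highest concentration if not reached. GI50 marks 50% less growth. The concentration for full growth arrest is given as TGI.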

How the values were obtained:
Experiment in all cases: NCI anticancer screen, dose series, 48 h
786-0 renal = system: 786-0 renal
A498 renal = system: A498 renal
A549 NSCLC = system: A549 NSCLC
ACHN renal = system: ACHN renal
BT-549 breast = system: BT-549 breast
CAKI-1 renal = system: CAKI-1 renal
CCRF-CEM leukemia = system: CCRF-CEM leukemia
COLO 205 colon = system: COLO 205 colon
DU-145 prostate = system: DU-145 prostate
EKVX NSCLC = system: EKVX NSCLC
HCC-2998 colon = system: HCC-2998 colon
HCT-15 colon = system: HCT-15 colon
HL-60(TB) leukemia = system: HL-60(TB) leukemia
HOP-62 NSCLC = system: HOP-62 NSCLC
HOP-92 NSCLC = system: HOP-92 NSCLC
HS 578T breast = system: HS 578T breast
HT29 colon = system: HT29 colon
IGROV1 ovarian = system: IGROV1 ovarian
K-562 leukemia = system: K-562 leukemia
KM12 colon = system: KM12 colon
LOX IMVI melanoma = system: LOX IMVI melanoma
M14 melanoma = system: M14 melanoma
MALME-3M melanoma = system: MALME-3M melanoma
MCF7 breast = system: MCF7 breast
MDA-MB-231 breast = system: MDA-MB-231 breast
MDA-MB-435 = system: MDA-MB-435
MDA-MB-468 breast = system: MDA-MB-468 breast
MOLT-4 leukemia = system: MOLT-4 leukemia
NCI-H226 lung = system: NCI-H226 lung
NCI-H23 lung = system: NCI-H23 lung
NCI-H460 lung = system: NCI-H460 lung
NCI-H522 lung = system: NCI-H522 lung
NCI/ADR-RES ovarian = system: NCI/ADR-RES ovarian
OVCAR-3 ovarian = system: OVCAR-3 ovarian
OVCAR-4 ovarian = system: OVCAR-4 ovarian
OVCAR-5 ovarian = system: OVCAR-5 ovarian
OVCAR-8 ovarian = system: OVCAR-8 ovarian
PC-3 prostate = system: PC-3 prostate
RPMI-8226 leukemia = system: RPMI-8226 leukemia
RXF 393 renal = system: RXF 393 renal
SF-268 CNS = system: SF-268 CNS
SF-295 CNS = system: SF-295 CNS
SF-539 CNS = system: SF-539 CNS
SK-MEL-2 melanoma = system: SK-MEL-2 melanoma
SK-MEL-28 melanoma = system: SK-MEL-28 melanoma
SK-MEL-5 melanoma = system: SK-MEL-5 melanoma
SK-OV-3 ovarian = system: SK-OV-3 ovarian
SN12C renal = system: SN12C renal
SNB-19 CNS = system: SNB-19 CNS
SNB-75 CNS = system: SNB-75 CNS
SR leukemia = system: SR leukemia
SW-620 colon = system: SW-620 colon
T-47D breast = system: T-47D breast
TK-10 renal = system: TK-10 renal
U251 CNS = system: U251 CNS
UACC-257 melanoma = system: UACC-257 melanoma
UACC-62 melanoma = system: UACC-62 melanoma
UO-31 renal = system: UO-31 renal

CN1CCN(c2ccc(C(=O)/C=C/c3cc(C(F)(F)F)ccc3Cl)cc2)CC1
GI50 (786-0 renal): 2.22 µM | TGI (786-0 renal): 5.74 µM | GI50 (A498 renal): 17.4 µM | TGI (A498 renal): 32 µM | GI50 (A549 NSCLC): 3.65 µM | TGI (A549 NSCLC): 14.8 µM | GI50 (ACHN renal): 4.92 µM | TGI (ACHN renal): 16.8 µM | GI50 (BT-549 breast): 5.42 µM | TGI (BT-549 breast): 20.4 µM | GI50 (CAKI-1 renal): 8.23 µM | TGI (CAKI-1 renal): 21.2 µM | GI50 (CCRF-CEM leukemia): 2.17 µM | TGI (CCRF-CEM leukemia): 5.93 µM | GI50 (COLO 205 colon): 3.48 µM | TGI (COLO 205 colon): 10.7 µM | GI50 (DU-145 prostate): 5.5 µM | TGI (DU-145 prostate): 20.5 µM | GI50 (EKVX NSCLC): 5.94 µM | TGI (EKVX NSCLC): 19 µM | GI50 (HCC-2998 colon): 1.81 µM | TGI (HCC-2998 colon): 3.2 µM | GI50 (HCT-15 colon): 1.87 µM | TGI (HCT-15 colon): 3.78 µM | GI50 (HL-60(TB) leukemia): 2.14 µM | TGI (HL-60(TB) leukemia): 7.53 µM | GI50 (HOP-62 NSCLC): 13.9 µM | TGI (HOP-62 NSCLC): 29.7 µM | GI50 (HOP-92 NSCLC): 3.79 µM | TGI (HOP-92 NSCLC): 18.1 µM | GI50 (HS 578T breast): 5.48 µM | TGI (HS 578T breast): 28.7 µM | GI50 (HT29 colon): 2.01 µM | TGI (HT29 colon): 5.02 µM | GI50 (IGROV1 ovarian): 3.33 µM | TGI (IGROV1 ovarian): 13 µM | GI50 (K-562 leukemia): 2.17 µM | TGI (K-562 leukemia): > 100 µM | GI50 (KM12 colon): 3.1 µM | TGI (KM12 colon): 9.83 µM | GI50 (LOX IMVI melanoma): 1.63 µM | TGI (LOX IMVI melanoma): 2.99 µM | GI50 (M14 melanoma): 3.13 µM | TGI (M14 melanoma): 10.9 µM | GI50 (MALME-3M melanoma): 11.2 µM | TGI (MALME-3M melanoma): 23.4 µM | GI50 (MCF7 breast): 1.42 µM | TGI (MCF7 breast): 2.94 µM | GI50 (MDA-MB-231 breast): 2.81 µM | TGI (MDA-MB-231 breast): 8.01 µM | GI50 (MDA-MB-435): 2.14 µM | TGI (MDA-MB-435): 5.06 µM | GI50 (MDA-MB-468 breast): 1.59 µM | TGI (MDA-MB-468 breast): 3.48 µM | GI50 (MOLT-4 leukemia): 4.94 µM | TGI (MOLT-4 leukemia): 93.6 µM | GI50 (NCI-H226 lung): 4.55 µM | TGI (NCI-H226 lung): 18.6 µM | GI50 (NCI-H23 lung): 3.89 µM | TGI (NCI-H23 lung): 14.2 µM | GI50 (NCI-H460 lung): 8.73 µM | TGI (NCI-H460 lung): 22.3 µM | GI50 (NCI-H522 lung): 12.3 µM | TGI (NCI-H522 lung): 27.9 µM | GI50 (NCI/ADR-RES ovarian): 3.5 µM | TGI (NCI/ADR-RES ovarian): 12.8 µM | GI50 (OVCAR-3 ovarian): 4.08 µM | TGI (OVCAR-3 ovarian): 14.4 µM | GI50 (OVCAR-4 ovarian): 10.7 µM | TGI (OVCAR-4 ovarian): 29 µM | GI50 (OVCAR-5 ovarian): 13.9 µM | TGI (OVCAR-5 ovarian): 26.9 µM | GI50 (OVCAR-8 ovarian): 9.04 µM | TGI (OVCAR-8 ovarian): 26.2 µM | GI50 (PC-3 prostate): 3.06 µM | TGI (PC-3 prostate): 13.2 µM | GI50 (RPMI-8226 leukemia): 1.77 µM | TGI (RPMI-8226 leukemia): 4.68 µM | GI50 (RXF 393 renal): 2.16 µM | TGI (RXF 393 renal): 11.1 µM | GI50 (SF-268 CNS): 14.1 µM | TGI (SF-268 CNS): 37.7 µM | GI50 (SF-295 CNS): 6.89 µM | TGI (SF-295 CNS): 19.8 µM | GI50 (SF-539 CNS): 1.92 µM | TGI (SF-539 CNS): 4.38 µM | GI50 (SK-MEL-2 melanoma): 17 µM | TGI (SK-MEL-2 melanoma): 32 µM | GI50 (SK-MEL-28 melanoma): 10.5 µM | TGI (SK-MEL-28 melanoma): 22.3 µM | GI50 (SK-MEL-5 melanoma): 3.71 µM | TGI (SK-MEL-5 melanoma): 15 µM | GI50 (SK-OV-3 ovarian): 5.66 µM | TGI (SK-OV-3 ovarian): 18.8 µM | GI50 (SN12C renal): 4.32 µM | TGI (SN12C renal): 16.4 µM | GI50 (SNB-19 CNS): 8.95 µM | TGI (SNB-19 CNS): 21 µM | GI50 (SNB-75 CNS): 2.66 µM | TGI (SNB-75 CNS): 15.6 µM | GI50 (SR leukemia): > 100 µM | TGI (SR leukemia): > 100 µM | GI50 (SW-620 colon): 2.08 µM | TGI (SW-620 colon): 4.02 µM | GI50 (T-47D breast): 12.3 µM | TGI (T-47D breast): 39.8 µM | GI50 (TK-10 renal): 13.5 µM | TGI (TK-10 renal): 29 µM | GI50 (U251 CNS): 2.1 µM | TGI (U251 CNS): 4.85 µM | GI50 (UACC-257 melanoma): 10.4 µM | TGI (UACC-257 melanoma): 23.7 µM | GI50 (UACC-62 melanoma): 10.9 µM | TGI (UACC-62 melanoma): 22.8 µM | GI50 (UO-31 renal): 4.09 µM | TGI (UO-31 renal): 16.4 µM
